Assay results from paper PMC13385394, “Cryo-EM Structure of the TRPC1/5 Heteromer Enables Design of Antidepressant and Anxiolytic Drug with Reduced Side Effects” (Nature Communications, 2026).
Entries after “also recorded” stand apart in the source; their conditions may differ.

Legend:
[1] = system: CUMS-induced depressive-like behaviors; test: Sucrose preference test (SPT) in CUMS model; type: in vivo, mouse; conditions: CUMS mice
Experimental: The stressors included food and water deprivation, foot shock, wet bedding, cage tilting, restraint, shaking, and olfactory stimulation. These seven stressors were randomly applied each week to ensure unpredictability. The stress induction was maintained continuously for 28 days. Following model establishment, the tail suspension test (TST) was performed to confirm the successful induction of depressive-like behaviors. Mice that met the criteria were randomly assigned to experimental groups.
Acute Treatment: A single dose of the test compound was administered, followed by the sucrose preference test (SPT).
Chronic Treatment: Mice were treated daily for 14 consecutive days. The SPT was conducted on day 11, and the forced swimming test (FST) was performed on day 14.
Mice were acclimated to 1% sucrose solution and plain water for 2 days. On the second day, the positions of the sucrose solution and water were swapped to eliminate positional bias. […] Mice were provided with pre-weighed 1% sucrose solution and plain water. […] Sucrose preference (%) was calculated as Sucrose Preference = A/(A + B)×100.

[2] = system: mCPP-induced anxiety; test: Elevated plus maze (EPM) test, mCPP-induced anxiety model; conditions: mCPP mice; single dose; JD03-02 3, 10, 30 mg/kg i.g.
[3] = system: TRPC1 or TRPC5 mutations within the TRPC1/5 heteromer; test: Whole-cell patch-clamp, inhibition of TRPC1/5 heteromers carrying TRPC1 or TRPC5 mutations (e.g. TRPC1 F595A); type: cell-based; conditions: TRPC1 F595A/C5 vs WT TRPC1/5
Text: The full-length hTRPC5 or truncated mTRPC5, and the full-length hTRPC1 constructs was respectively co-transfected in a plasmid ration 1:3 (w/w) into HEK293T cells (from the ATCC). As previously described, a mCherry was inserted into TRPC5 constructs and a GFP was inserted at the C terminus of TRPC1. Therefore, Cells with red and green fluorescence were selected for whole-cell patch recordings (HEKA EPC10 amplifier, […] software (https://www.heka.com/downloads/downloads_main.html#down_patchmaster)). A 1-s ramp protocol from −100 to +100 mV was applied at a frequency of 0.2 Hz. Signals were sampled at 50 kHz and filtered at 2.9 kHz. The pipette solution contained 130 mM CsCl, 1 mM MgCl2, 5.7 mM CaCl2, 10 mM EGTA, and 10 mM Hepes (calculated free Ca^2+, 200 nM), and the pH was titrated to 7.2 using CsOH[40]. The standard bath solution contained 140 mM NaCl, 5 mM KCl, 1 mM MgCl2, 2 mM CaCl2, 10 mM Hepes, and 10 mM D-glucose, and the pH was adjusted to 7.4 with NaOH (1 M). The recording chamber (150 μL) was perfused at a rate of ~2 mL/min. All recordings were performed at room temperature. In this experiment, TRPC5 homomers or TRPC1/5 heteromers were activated using the TRPC1/4/5 agonist Englerin A (EA).
Error bars represent the standard error of the mean (SEM, n = 6 independent
Error bars represent the standard error of the
110 mean (SEM, n = 5 independent cells).

[4] = molecular target: T1, TRPC5 homomers (Homo sapiens, UniProt Q9UL62); test: Whole-cell patch-clamp, inhibition of EA-activated TRPC5 homomers; type: cell-based
T1 construct: full length hTRPC5 (TRPC5 wild type (WT)); expressed in transfected cells; host or cells: HEK293T
T1 sequence (Q9UL62 1-973): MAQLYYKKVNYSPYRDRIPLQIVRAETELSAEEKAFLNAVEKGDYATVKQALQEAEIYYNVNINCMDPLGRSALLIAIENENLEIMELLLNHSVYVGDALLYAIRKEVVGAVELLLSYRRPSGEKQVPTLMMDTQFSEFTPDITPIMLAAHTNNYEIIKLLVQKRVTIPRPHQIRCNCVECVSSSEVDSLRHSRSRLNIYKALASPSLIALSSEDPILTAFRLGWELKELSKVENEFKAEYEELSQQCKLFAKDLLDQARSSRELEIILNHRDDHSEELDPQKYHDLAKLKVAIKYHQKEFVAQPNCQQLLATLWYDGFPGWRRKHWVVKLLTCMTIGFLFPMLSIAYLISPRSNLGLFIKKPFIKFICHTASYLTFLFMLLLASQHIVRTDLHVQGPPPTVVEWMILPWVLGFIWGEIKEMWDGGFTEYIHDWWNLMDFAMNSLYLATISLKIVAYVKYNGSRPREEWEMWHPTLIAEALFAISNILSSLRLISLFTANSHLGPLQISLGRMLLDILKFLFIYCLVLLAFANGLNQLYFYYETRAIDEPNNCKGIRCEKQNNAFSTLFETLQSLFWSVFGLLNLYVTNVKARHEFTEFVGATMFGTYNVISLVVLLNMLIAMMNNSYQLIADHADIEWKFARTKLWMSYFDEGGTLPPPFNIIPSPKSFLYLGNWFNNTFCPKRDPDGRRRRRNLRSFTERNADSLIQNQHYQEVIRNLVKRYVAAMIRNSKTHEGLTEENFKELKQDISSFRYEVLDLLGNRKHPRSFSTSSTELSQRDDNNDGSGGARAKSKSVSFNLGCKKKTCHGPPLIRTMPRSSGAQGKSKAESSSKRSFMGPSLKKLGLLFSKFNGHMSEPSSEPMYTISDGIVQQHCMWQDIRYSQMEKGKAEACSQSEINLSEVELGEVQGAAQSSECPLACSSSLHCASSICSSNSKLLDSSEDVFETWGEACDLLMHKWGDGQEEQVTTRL

[5] = system: diet-induced obesity (DIO) mice; test: Diet-induced obesity (DIO) model, body weight and food intake; type: in vivo, mouse; conditions: 11 days once daily, HC-070 and JD03-02 10 mg/kg i.g., Semaglutide 0.123 mg/kg s.c.
Experimental: A maximum of five mice were housed per cage during the acclimatization period, and three mice per cage during the experimental period. […] The day of administration was defined as day 1 (D1) of the experiment, with a single dose/day administered for 11 consecutive days. Daily observations were made on the animals’ general condition. Body weight was measured on days 1, 3, 5, 7, 9, and 11 post-administrations. Food intake was measured on days 1, 3, 5, 7, and 9 post-administrations by calculating the difference between the amount of food provided and the amount remaining in the cage, divided by the number of animals in the cage to determine the average food intake per mouse. The cumulative food intake during the experiment was calculated by summing the food intake measurements taken on different days.

CN(C)CCCCn1c(=O)c2c(nc(Oc3cccc(Cl)c3)n2Cc2ccc(Cl)cc2)n(C)c1=O [H08]
sucrose intake (SPT), repeated dosing ([1]; 11 days once-daily oral, vs vehicle): significantly improved sucrose intake | sucrose preference (SPT), single dose ([1]; single oral dose, JD03-02 30 mg/kg, 30 mg/kg): significantly increased sucrose preference | EPM open arm entries and time in open arms [2]: increasing numbers of open arm entries and time spent in open arms | increase in IC50 on alanine substitution of F595 in TRPC1 [3]: ~ 100 fold | concentration at which inhibition of TRPC5 homomers appears [4]: > 5 µM | HillSlope, TRPC5 ([4]; whole-cell patch-clamp): 1.990 | IC50 ([4]; whole-cell patch-clamp): 8.5 µM | HillSlope, TRPC5 ([4]; whole-cell patch-clamp, listed as JD03-02): > 1 | body weight [5]: no significant effect; also recorded: did not affect body weight or food intake | food intake [5]: no significant effect; also recorded: did not affect body weight or food intake
